Source: patent US10487113B2, “Peptide having activity to improve skin condition and use thereof” (CAREGEN CO., LTD., priority 2014, dated 2019)

Assays:
NIH3T3 cells = assay: Western blotting of pERK and p38 in UVA-irradiated cells; assay type: cell-based; settings: 1-10 ug/ml, 30 minutes, then UVA (8 J), 24 hours
Protocol: NIH3T3 cells ([…]) were seeded in a 6-well plate at a cell density of 2×10^5 cells/well, followed by incubation overnight, and then the cells were treated with CG-Renuin or CG-Noverin peptides at different concentrations (1-10 ug/ml), followed by incubation at 37 °C for 30 minutes. Then, the cells were irradiated with UVA (8 J), followed by incubation for 24 hours. The lysates were obtained by the treatment with the cell lysis buffer, followed by protein quantification. For the confirmation of the expression of cellular activating factors, western blotting was conducted using the anti-pERK (Santa Cruz Biotechnology, USA) and p38 (Santa Cruz Biotechnology, USA) antibodies.

MMP2 [1] = target: T1, MMP2 (Homo sapiens, UniProt P08253); assay: rhMMP2 inhibition by gelatin zymography; assay type: biochemical; settings: rhMMP2 mixed with peptide 0.1 ug/ml and 1 ug/ml, room temperature, 1 hour
T1 sequence (P08253 110-660): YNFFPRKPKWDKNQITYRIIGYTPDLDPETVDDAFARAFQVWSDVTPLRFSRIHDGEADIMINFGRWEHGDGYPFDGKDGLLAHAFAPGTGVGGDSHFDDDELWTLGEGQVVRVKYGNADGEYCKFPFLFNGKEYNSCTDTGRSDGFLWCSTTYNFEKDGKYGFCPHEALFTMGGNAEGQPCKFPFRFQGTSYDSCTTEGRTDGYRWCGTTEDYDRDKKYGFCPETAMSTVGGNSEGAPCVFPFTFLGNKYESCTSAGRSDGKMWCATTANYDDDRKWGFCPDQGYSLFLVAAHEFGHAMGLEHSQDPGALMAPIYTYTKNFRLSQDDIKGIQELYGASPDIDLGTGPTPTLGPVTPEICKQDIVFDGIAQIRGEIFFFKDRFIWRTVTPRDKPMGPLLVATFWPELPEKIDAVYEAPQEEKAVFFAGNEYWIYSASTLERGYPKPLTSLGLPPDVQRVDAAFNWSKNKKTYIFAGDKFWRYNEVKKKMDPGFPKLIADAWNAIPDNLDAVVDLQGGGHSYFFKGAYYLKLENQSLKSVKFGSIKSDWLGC
Protocol: (§1) After rhMMP2 was mixed with the peptides at different concentrations (0.1 ug/ml and 1 ug/ml), the incubation was conducted at room temperature for 1 hour. Then, in order to investigate the expression of rhMMP2 through gelatin zymography, protein electrophoresis (SDS-PAGE) was conducted using gelatin (2 mg/ml) as a substrate. After the electrophoresis, the gel was immersed in 2.5% Triton X-100 for 30 minutes, and then incubated in a buffer containing 50 mM Tris-HCl, 0.2 M NaCl, 5 mM CaCl2), and 1% Triton X-100 at 37 °C for 24 hours. After the incubation, the gel was stained with Coo-massie Brilliant Blue R250 (Sigma), and de-stained with a solution containing 5% methanol, 7.5% acetic acid, and distilled water. In addition, the bands formed by gelatin hydrolysis were observed.

MMP2 [2] = target: T2, MMP2 (Mus musculus, UniProt P33434); assay: MMP2 activity in TNF-α-induced fibroblast cells (NIH3T3), gelatin zymography; assay type: cell-based; settings: NIH3T3, MMP2 induced by TNF-α; 10, 100, 1000 ng/ml, 24 hours
T2 construct: endogenous in cells; host or cells: NIH3T3
T2 sequence (P33434 110-662): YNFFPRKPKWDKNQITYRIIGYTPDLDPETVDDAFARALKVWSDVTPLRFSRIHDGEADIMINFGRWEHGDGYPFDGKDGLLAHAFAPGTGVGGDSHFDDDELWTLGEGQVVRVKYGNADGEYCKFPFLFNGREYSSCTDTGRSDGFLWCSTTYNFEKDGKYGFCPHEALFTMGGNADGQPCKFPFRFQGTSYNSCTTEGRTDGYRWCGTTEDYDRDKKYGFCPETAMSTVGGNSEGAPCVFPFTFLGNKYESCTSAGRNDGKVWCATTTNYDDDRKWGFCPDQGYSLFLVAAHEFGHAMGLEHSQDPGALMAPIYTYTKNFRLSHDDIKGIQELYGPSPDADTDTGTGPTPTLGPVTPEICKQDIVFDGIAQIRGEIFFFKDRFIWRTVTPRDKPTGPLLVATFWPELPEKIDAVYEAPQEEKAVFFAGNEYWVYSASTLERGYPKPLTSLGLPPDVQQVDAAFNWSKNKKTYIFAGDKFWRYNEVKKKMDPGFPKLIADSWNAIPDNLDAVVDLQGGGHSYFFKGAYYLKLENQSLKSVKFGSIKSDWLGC
Protocol: as §1, with “Fibroblast cells (NIH3T3) were seeded in a 24-well plate at a cell density of 3×10^4 cells/well. The next day, the cells were incubated in serum-less medium for 24 hours, and the expression and activation of MMP2 were induced by TNF-α. The cells were treated” for “After rhMMP2 was mixed”, “CG-Renuin or CG-Noverin” for “the peptides”, “(10 ng/ml, 100 ng/ml, 1000 ng/ml), followed by incubation for 24 hours. The supernatant obtained from centrifugation at 14,000×g for 10 minutes was incubated,” for “(0.1 ug/ml”, “then,” for “1 ug/ml), the incubation was conducted at room temperature for 1 hour. Then,”, “MMP2” for “rhMMP2”

HaCaT keratinocytes = assay: Melanosome transfer: phagocytosis assay with fluorescent bioparticles; assay type: cell-based; settings: trypsin 1 μg/ml induction, peptide 1 μg/ml, 48 hours; trypsin treatment group considered 100%
Protocol: In order to observe melanosome transfer, phagocytosis assay was conducted using HaCaT keratinocytes. Bioparticles with a fluorescence substance attached thereto were used as a substance for phagocytosis. The cells were seeded in a 96-well tissue culture plate at 3×10^3 cells/well, incubated for 24 hours, and then incubated in a serum-free medium for 6 hours. Thereafter, for the induction of phagocytosis, the cells were treated with 1 μg/ml of trypsin, and then the cells were treated with 1 μg/ml of peptides for 48 hours. As a result, it was confirmed through a fluorescent microscope that the bioparticles were phagocytized into keratocytes. From the observation when the data with respect to a phagocytosis induction group, that is, a trypsin treatment group, were considered to be 100%, it was verified that phagocytosis was inhibited in the CG-Noverin treatment group and the CG-Renuin treatment group.

[3] = tested on: Human primary dermal fibroblast cells; assay: Human primary dermal fibroblast cell proliferation, SRB assay; assay type: cell-based; settings: 1 ng/ml to 1 ug/ml, 72 hours, SRB assay OD 590 nm
Protocol: Human primary dermal fibroblast cells were treated with CG-Renuin (peptide of SEQ ID NO: 1) and CG-Noverin (peptide of SEQ ID NO: 2) at different concentrations (1 ng/ml to 1 ug/ml), and the cells were incubated for 72 hours in a cell incubator. Then, the cell proliferation change by the peptide treatment was analyzed through SRB assay (OD 590 nm).

MMP2 [4] = target: T1, MMP2; assay: Inhibition of MMP2-induced collagen degradation in human dermal fibroblast (HDF) cells, pro-collagen type I kit; assay type: cell-based; design: purchased SIGMA/USA; host or cells: added to human dermal fibroblast (HDF) cells; settings: MMP2 20 ng/ml co-treatment, 6 hours, or after IGF-1 100 ng/ml, 4 hours, pro-collagen type I in supernatant
Protocol: Human dermal fibroblast (HDF) cells (3×10^4) were seeded in a 24-well plate. The next day, the cells were incubated in 5% serum medium for 42 hours, treated with MMP2 (20 ng/ml, SIGMA/USA) and CG-Noverin or CG-Renuin, respectively, and incubated for 6 hours. The supernatant obtained from centrifugation at 14,000×g for 10 minutes was analyzed using the pro-collagen type I kit (RnD system/USA).
Human dermal fibroblast (HDF) cells (3×10^4) were seeded in a 24-well plate, and then the next day, the medium was exchanged with a 5% serum medium. The cells were treated with IGF-1 (100 ng/ml, Sigma/USA), followed by incubation for 44 hours, and then the cells were treated with MMP2 (20 ng/ml) and CG-Noverin or CG-Renuin, respectively, followed by incubation for 4 hours. The supernatant obtained from centrifugation at 14,000×g for 10 minutes was analyzed using the pro-collagen type I kit.

Substance	phosphorylation of ERK (NIH3T3 cells)	phosphorylation of P38 (NIH3T3 cells)	MMP2 activity (gelatin zymography) (MMP2 [1])	MMP2 activity in fibroblast cells (MMP2 [2])	phagocytosis (melanosome transfer) (HaCaT keratinocytes)	proliferation of human primary dermal fibroblast cells [3]	collagen degradation induced by MMP2 (MMP2 [4])
NH2-Cys-Pro-Arg-His-Phe-Asn-Pro-Val-Cys-COOH (H-CPRHFNPVC-OH; cysteine pairing not given here) [CG-Noverin]	increased	increased	directly inhibited	inhibited	inhibited	increased depending on the treatment amount	inhibited the induction of collagen degradation
NH2-Cys-Thr-Lys-Ile-Tyr-Asp-Pro-Val-Cys-COOH (H-CTKIYDPVC-OH; cysteine pairing not given here) [CG-Renuin]	increased	increased	directly inhibited	inhibited	inhibited	increased depending on the treatment amount	inhibited the induction of collagen degradation
